“Also recorded” adds a separate entry of the source. Like-named read-outs stand apart in the source and are kept apart here.
Legend:
HRV16 [1] = assay: Assessment of HRV16 induced CPE in MRC5; assay type: cell-based, human rhinovirus 16; settings: Rhinovirus A
Method: The supernatants were aspirated and fresh media was added and the preparations were then incubated for 4 days. Where appropriate, cells were pre-incubated with the test compound or DMSO for 2 hr, and the compounds and DMSO added again after washout of the virus. Supernatants were aspirated and incubated with methylene blue solution (2% formaldehyde, 10% methanol and 0.175% Methylene Blue) for 2 hr at RT. After washing, 1% SDS was added to each well, and plates were shaken lightly for 1-2 hr prior to reading the absorbance at 660 nm. The percentage inhibition for each well was calculated. The IC50 value was calculated from the concentration-response curve generated from the serial dilutions of the test compound.

IL-8 [2] = assay: IL-8 release activated by human rhinovirus in BEAS2B cells; assay type: cell-based; settings: for IL-8 production in response to inoculation using HRV-16: epithelial cells
Method: BEAS2B cells were infected with rhinovirus at an MOI of 5 and incubated for 2 hr at 33° C. with gentle shaking to enhance adsorption. Test compounds were added 2 hr before HRV infection and 2 hr after infection when residual extracellular HRV was washed out. The cells were then washed with PBS, fresh media was added and the cells were incubated for a further 72 hr. The supernatant was collected for assay of IL-8 concentrations using the Duoset ELISA development kit (R&D Systems, Minneapolis, Minn.).

ICAM-1 = assay: ICAM1 expression activated by human rhinovirus in BEAS2B cells (cell-based ELISA); settings: for ICAM-1 expression induced by HRV16 inoculation (in words): 2 hr infection
Method: BEAS2B cells were infected with rhinovirus at an MOI of 5 and incubated for 2 hr at 33° C. with gentle shaking to enhance adsorption. Test compounds were added 2 hr before HRV infection and 2 hr after infection when residual extracellular HRV was washed out. The cells were then washed with PBS, fresh media was added and the cells were incubated for a further 72 hr. The supernatant was collected for assay of IL-8 concentrations using the Duoset ELISA development kit (R&D Systems, Minneapolis, Minn.). […] After appropriate incubation, cells were fixed with 4% formaldehyde in PBS. After quenching endogenous peroxidase by adding 0.1% sodium azide and 1% hydrogen peroxide, wells were washed with buffer (0.05% Tween in PBS: PBS-Tween). After incubation with the blocking solution (5% milk in PBS-Tween for 1 hr), cells were incubated with anti-human ICAM-1 antibody in 5% BSA PBS-Tween (1:500) overnight. Wells were then washed with PBS-Tween and incubated with the secondary antibody (HRP-conjugated anti-rabbit IgG, Dako Ltd.).

HRV16 [3] = assay: HRV-16 infection, assessment of virus load (TCID50) in MRC5 cells; assay type: cell-based, human rhinovirus 16; settings: HRV16 0.1 MOI, 3 days
Method: Human rhinovirus RV16 (HRV16) was obtained from the American Type Culture Collection (Manassas, Va.). Viral stocks were generated by infecting Hela cells with HRV until 80% of the cells were cytopathic. MRC5 cells (human lung fibroblast, ATCC) were infected at 0.1 MOI (multiplicity of infection of 0.1) of HRV16 and incubated for 1 hr at 33° C. with gentle shaking to stimulate adsorption. The cells were then washed with PBS, fresh media (DMEM-5% FCS) was added and the cells were incubated for a further 72 hr. Supernatant (20 μL) was collected and 10-fold serial dilutions were prepared with DMEM containing 1% FCS. All titrations were performed by infecting confluent Hela cell monolayers with serially diluted supernatant (10^−1-10^−5) and then the cytopathic effect at each dilution 3 days after infection assessed by visual inspection. The cells were then stained with Crystal Violet for confirmation. The amount of virus required to infect 50% of Hela cells was calculated in each treatment as TCID50 (50% tissue culture infectious dose, U(unit)/20 μL). Compounds were added 2 hr before HRV16 infection and 1 hr after infection when non-infected HRV was washed out.

NFκB = assay: HRV-16 induced activation of NFκB in BEAS2B cells; assay type: cell-based, human; settings: after 2 hr, at 10 MOI
Method: (§1) The cells were then collected by scraping on ice and nuclear extracts were prepared using a nuclear protein extraction kit (ActiveMotif, […], Belgium). NFκB activity and IRF3 activity were then measured using the TransAMTM NFκB (p65) ELISA kit or the TransAMTM IRF3 ELISA kit.

IRF-3 = assay: HRV-16 induced activation of IRF-3 in BEAS2B cells; assay type: cell-based, human; settings: after 2 hr, at 10 MOI
Method: as §1

HRV16 mRNA = assay: Transcripts of HRV16 by PCR in MRC5 cellular extract; assay type: cell-based, human rhinovirus 16; settings: MRC5 cells, HRV16 0.1 MOI, 3 days
Method: (§2) The MRC5 cells infected with virus (as described above) were used for viral RNA or mRNA detection. Total RNA extraction and reverse transcription were performed using TaqMan®Fast Cells-to-CT™ Kit (Ambion Inc. Austin Tex.). The gene transcript level of HRV16 (PrimerDesign Ltd, Southampton, UK), IFN (Applied Biosystems, Warrington, UK) and GAPDH, as a house-keeping gene (PrimerDesign Ltd, Southampton, UK) were quantified by real-time PCR using commercially available primers on a StepOnePlus™ RT-PCR system (Applied Biosystems, Warrington, UK). Variations in cDNA concentrations between different samples were corrected using the housekeeping gene, whereby the GAPDH concentration in each cDNA sample was calculated, and the cDNA diluted to contain equal amounts of GAPDH. Standard curves for GAPDH were generated by performing a dilution series of the untreated control cDNA. The relative amount of gene transcript present after different treatments was calculated and normalized by dividing the calculated value for the gene of interest by that of the house-keeping gene value.

HRV39 [4] = assay: HRV-39 viral load in air-liquid interface cultured nasal epithelial cells; assay type: cell-based, human rhinovirus
Method: (§3) Primary nasal epithelial cells, cultured using an air-liquid interface, were purchased from Epithelix Sarl (Geneva, Switzerland). Fresh, warmed media (200 μL) containing either the test compound at the selected concentration or vehicle (DMSO; final concentration of 0.5%) was transferred to the apical chamber, and fresh, warmed media (700 μL) containing either the test compound at the selected concentration or vehicle (DMSO; final concentration of 0.5%) were transferred to the bottom chamber. After incubation for 2 hr, the media in the upper well was removed carefully. The following day, fresh, warmed media (200 μL) containing either the test compound at the selected concentration or vehicle (DMSO; final concentration of 0.5%) was transferred to the apical chamber again, and after incubation for 2 hr, the media was removed. On the third day, cells were treated again for 2 hr, and the media was removed. […] IL-8 concentrations were determined using a Duoset ELISA development kit (R&D Systems, Minneapolis, Minn.; FIG. 3B). […] The resultant cytopathic effects (CPE) were assessed by visual inspection 5 days after infection. The amount of virus required to infect 50% of Hela cells was calculated for each treatment and is reported as log[TCID50] […]

IL-8 [5] = assay: HRV39-induced IL-8 release in air-liquid interface cultured nasal epithelial cells; assay type: cell-based, human
Method: as §3

interferon β = assay: Interferon β induction (mRNA) by HRV16 in MRC-5 cells, PCR; assay type: cell-based, human
Method: as §2

HRV1B = HRV1B titres in MRC-5 cells; assay type: cell-based, human rhinovirus; settings: 0.1 or 10 MOI, 3 days, results not shown
HRV39 [6] = assay: HRV39 titres in MRC-5 cells; assay type: cell-based, human rhinovirus; settings: 0.1 or 10 MOI, 3 days, results not shown
HRV16 [7] = assay: HRV-16 infection, assessment of virus load (TCID50) in MRC5 cells; assay type: cell-based, human rhinovirus 16; settings: MRC5 cells, 0.1 MOI, total period of 84 hr
SYK = SYK (Homo sapiens, UniProt P43405); assay: Kinase enzyme activity, FRET (Z-LYTE); assay type: biochemical; settings: 15 μM ATP
Method: (§4) The enzyme inhibitory activity of test compounds was determined by fluorescence resonance energy transfer (FRET) using synthetic peptides labelled with both donor and acceptor fluorophores (Z-LYTE, Invitrogen). For p38 MAPK alpha (MAPK14: Invitrogen), enzyme activity was evaluated indirectly by determining the activation/phosphorylation of the down-stream molecule, MAPKAP-K2. The p38 MAPK a protein was mixed with the test compound for 2 hr at RT. MAPKAP-K2 (Invitrogen), the FRET peptide (2 μM), which is a phosphorylation target for MAPKAP-K2, and ATP (10 μM) were then added to the enzymes/compound mixture and incubated for 1 hr. Development reagent was added and the mixture incubated for 1 hr before detection by fluorescence completed the assay protocol. The enzymes HCK, c-SRC, and SYK were evaluated in a similar fashion. Each enzyme was incubated with the test compound for 2 hr at RT. […] After the development reagent was added the mixtures were incubated for 1 hr and the assay protocol was completed by detection of the fluorescence levels in a microplate reader.

HCK = HCK (Homo sapiens, UniProt P08631); assay: Kinase enzyme activity, FRET (Z-LYTE); assay type: biochemical; settings: 15 μM ATP
HCK, sequence (P08631 whole entry): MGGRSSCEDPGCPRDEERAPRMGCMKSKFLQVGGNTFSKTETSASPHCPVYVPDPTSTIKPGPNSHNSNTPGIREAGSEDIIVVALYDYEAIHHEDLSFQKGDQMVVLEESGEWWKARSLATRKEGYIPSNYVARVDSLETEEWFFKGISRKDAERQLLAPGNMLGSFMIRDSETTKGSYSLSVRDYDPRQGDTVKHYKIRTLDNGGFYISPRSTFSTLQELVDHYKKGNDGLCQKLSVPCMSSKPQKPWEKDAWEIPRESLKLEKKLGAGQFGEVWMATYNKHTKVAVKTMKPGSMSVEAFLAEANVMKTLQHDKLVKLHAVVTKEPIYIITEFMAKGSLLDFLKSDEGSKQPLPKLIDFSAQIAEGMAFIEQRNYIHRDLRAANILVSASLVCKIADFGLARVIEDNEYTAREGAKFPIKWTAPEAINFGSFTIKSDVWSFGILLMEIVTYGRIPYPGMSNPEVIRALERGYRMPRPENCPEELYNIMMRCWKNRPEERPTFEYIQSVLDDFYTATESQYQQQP
Method: as §4

p38MAPKα = target: T1, p38MAPKα (Homo sapiens, UniProt Q16539); assay: Kinase enzyme activity, FRET (Z-LYTE); assay type: biochemical; settings: 10 μM ATP, via MAPKAP-K2
T1 construct: purchased Invitrogen
T1 sequence (Q16539 whole entry): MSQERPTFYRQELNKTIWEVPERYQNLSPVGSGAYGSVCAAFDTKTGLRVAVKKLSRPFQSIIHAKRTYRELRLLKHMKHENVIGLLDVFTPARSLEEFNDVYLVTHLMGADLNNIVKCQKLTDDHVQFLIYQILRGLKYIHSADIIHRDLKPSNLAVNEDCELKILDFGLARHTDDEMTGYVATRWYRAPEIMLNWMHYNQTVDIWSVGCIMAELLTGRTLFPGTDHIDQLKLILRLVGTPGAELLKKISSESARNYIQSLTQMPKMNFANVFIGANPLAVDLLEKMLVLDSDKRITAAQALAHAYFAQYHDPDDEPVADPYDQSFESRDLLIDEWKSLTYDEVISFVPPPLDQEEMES
Method: as §4

Row | IC50 (HCK) [nM] | IC50 (p38MAPKα) [nM] | SMILES | IC50 (HRV16 [1]; 96 h, MRC5 cells, HRV16 MOI of 1, 4 days, read-out: HRV16-induced CPE IC50 Value) [nM] | IL-8 production in response to inoculation using HRV-16 (IL-8 [2]) | ICAM-1 expression induced by HRV16 inoculation (in words) (ICAM-1) | HRV-16 virus load (extracellular) (HRV16 [3]) | NFκB activation (HRV-16 induced) (NFκB) | IRF-3 activation (HRV-16 induced) (IRF-3) | HRV16 mRNA detected in cellular extracts (HRV16 mRNA) | HRV39 extracellular virus load (HRV39 [4]) | IL-8 production in response to inoculation using HRV39 (IL-8 [5]) | Interferon β induction by HRV16 (interferon β) | HRV1B titres (HRV1B) | HRV39 titres (HRV39 [6]) | Activity versus extracellular HRV16 load, delaying treatment for 24-36 hr (HRV16 [7]) | Activity versus extracellular HRV16 load, initial treatment (HRV16 [7]) | IC50 (HRV16 [1]; HRV16, MRC5, 96 h, read-out: HRV16-induced CPE IC50 Value (nM)) [nM] | IC50 (IL-8 [2]; Homo sapiens, BEAS-2B, BEAS2B cells, MOI of 5, 72 hr, read-out: HRV16-induced IL-8 IC50 Value) [nM] | IC50 (ICAM-1; Homo sapiens, BEAS-2B, HRV16 inoculation (2 hr infection), read-out: HRV16-induced ICAM1 IC50 Value) [nM] | IC50 (SYK) [nM]
1 | – | – | COCC(=O)Nc1cc(Oc2ccc(NC(=O)Nc3cc(C(C)(C)C)nn3-c3ccc(C)cc3)c3ccccc23)ccn1 [Reference Compound 2, N-(4-(4-(3-(3-tert-Butyl-1-p-tolyl-1H-pyrazol-5-yl)ureido)naphthalen-1-yloxy)pyridin-2-yl)-2-methoxyacetamide] | 4.7 | marked inhibition | remarkably potent inhibitory effect | potent inhibitor; also recorded: Marked inhibition | inhibited; also recorded: Marked inhibition | enhanced; also recorded: Activation | potent inhibitor | potent inhibitor | marked inhibition | marked increases | potent inhibitor | potent inhibitor | more sustained | marked activity | – | – | – | –
2 | – | – | COCC(=O)Nc1cc(COc2ccc(NC(=O)Nc3cc(C(C)(C)C)nn3-c3ccc(C)cc3)c3ccccc23)ccn1 [Reference Compound 1, N-[4-({4-[3-(3-tert-Butyl-1-p-tolyl-1H-pyrazol-5-yl)ureido]naphthalen-1-yloxy}methyl)pyridin-2-yl]-2-methoxyacetamide, reference compound] | – | marked inhibition | no effect | modest effect; also recorded: Modest inhibition | some evidence of inhibition; also recorded: Modest inhibition | without effect; also recorded: No effect | – | little effect | marked inhibition | – | little or no discernable effect | little or no discernable effect | marked decrease in activity | marked activity | 340 | 1 | > 1690 | > 17800
3 | > 3310 | > 3310 | COc1ccc(-c2cc3nccn3c(Nc3ncccc3C(N)=O)n2)cc1OC [BAY 61-3606] | – | – | – | – | inhibited | tendency to inhibit | – | – | – | – | – | – | – | – | – | – | – | –
